According to patent US7378545B2, “Crystallization of amino acids using ultrasonic agitation” (Abbott Laboratories, priority 2002, dated 2008):

Assays:
Type in all cases: physicochemical
[1] = Solubility of L-thyroxine in standard solution (cooling/redissolving, light probe)
Method: The solubility of L-thyroxine was determined by studying a standard solution of L-thyroxine.
The L-thyroxine solution was then transferred to a glass crystallizer and cooled until the L-thyroxine crystallized spontaneously. Then, the temperature of the solution was slowly raised until the crystallized L-thyroxine was redissolved. The crystallization status of the solution was determined using a light probe. The light probe was comprised of two parallel rods with a light source and a photocell. The light probe measured the amount of crystals in the solution by determining the change in the amount of light that was absorbed or scattered by the solution. In solutions with crystals, the photocells registered a weakened beam as compared to beams sent through clear solutions.
Data obtained from these experiments is plotted in FIG. 1. The solubility of L-thyroxine in the standard solution is given by black circles, interpolated by the solid line.
The temperature of saturation at standard conditions (4.84% w/w) was 42° C. […] A theoretical yield of 83% of L-thyroxine was calculated. […] At a concentration of 20% propanol or 4% sodium carbonate, the solubility of L-thyroxine at lower temperatures was not determined. Under these conditions, sodium carbonate co-precipitated with sodium L-thyroxine at around 10° C.

[2] = Parametric sensitivity of L-thyroxine crystallization, particle size (one liter glass crystallizer, no ultrasound)
Method: The following trials were conducted to test the effects of various parameters other than ultrasonification on the crystallization of L-thyroxine. These trials were performed in a one liter glass crystallizer equipped with three baffles and a 60 mm marine type propeller (Ne=0.4). While most trials were run with the standard solution given in Example 1, propanol concentration was varied in trials 5 and 6. The final temperature for all trials was 10° C.

[3] = Effect of ultrasonification on crystallization, particle size by Aerosizer time-of-flight (2000 W, 20 kHz sonotrode)
Description: L-thyroxine crystals were obtained by batch-wise cooling crystallization of a standard solution of L-thyroxine.
To crystallize L-thyroxine, the standard solution of L-thyroxine was heated to a specified temperature, introduced into a crystallizer and cooled at a controlled rate. As the solution cooled and L-thyroxine crystallized, the solution was exposed to ultrasonification.
A sonotrode complete with generator and transducer capable of emitting an radial ultrasonic pressure wave at a 20 kHz frequency and 2000 W of power (UIP 2000 industrial processor with block sonotrode) was mounted in the crystallizer. The L-thyroxine solution was prepared and agitated at 20 RPM. The temperature was stabilized at 50° C., and the ultrasonic generator was turned on in continuous mode and at 100% amplitude. The cooling sequence was then initiated and the temperature of the solution was lowered at 0.5° C. per minute to a final set point of 10° C. The period of time that the ultrasound was applied to the solution as it was cooling to this set point was varied. For the first trial, a controlled crystallization was allowed to occur without any application of ultrasound to the product solution. For the second trial, the ultrasound remained on until a temperature of 30° C. was reached. At this point the ultrasound was turned off while the solution continued to cool to 10° C. When 10° C. was reached, the slurry was sampled and heated back up to 50° C. to redissolve the solid. The third trial proceeded in the same manner, but when the solution reached a temperature of 26° C., the ultrasound was turned off and the solution continued to cool to 10° C. The trials continued in this manner, changing the temperature at which the ultrasound was turned off by 4° C. each time until for the last trial, the solution was sonified throughout cooling. During this last trial, ultrasound was maintained at the cooling set point for a period of one hour, with samples being pulled at the half hour and one hour mark. This slurry was then transferred to a filter dryer for filtering, washing and drying. Once the product was dry, a sample was taken to determine the additional effects on particle size of the manufacturing process downstream of the crystallizer.
Particle size analysis for all samples was performed with an Aerosizer aerodynamic time-of-flight particle-sizing instrument.
Samples for all of the trials shown in the table above were taken from the crystallizer in the slurry form. A portion of these slurry samples was filtered, washed with ethanol and dried at ambient temperature. A reduction in particle size on a volume basis was apparent between trial 1, which underwent no sonification, and trials 2-7, which underwent various periods of ultrasound application. The magnitude of this reduction is roughly three fold.

[4] = Nucleation temperature / metastable zone during cooling of L-thyroxine solutions
Description: The extent of the metastable zone depends on the rate of cooling. The lower the cooling rate, the higher the temperature at which nucleation begins.

[5] = Effect of ultrasonification intensity on crystal size (one-liter flask in ultrasonic bath, ≈40 kHz); settings: for C.V. Coefficient of variation = (X86 − X14)/(2 * X50): unit assumed
Method: A one-liter round bottom glass flask was filled with the standard L-thyroxine solution and cooled under stirring. The flask was then immersed in an ultrasonic bath (Sonorex Super Bandelin DK102, ≈40 kHz) to study the influence of different sonification intensities on the size of L-thyroxine crystals. The frequency and power dissipated by the bath was measured using a hydrophone. As an additional parameter, the onset point of sonification and its duration was also varied.

[6] = Effect of ultrasonification intensity on crystal size (22 L crystallizer, 24 kHz sonotrode)
Method: In order to verify the findings from Example 5, additional experiments were carried out in a 22 L double-jacket glass crystallizer equipped with a draft tube and a 200 mm marine type propeller (Ne=0.3). A custom-made sonotrode (24 kHz) was used along with a UIP250 sound generator. In this example, the exact sonification power was not determined, although it was estimated to be in the order of 25-50 W. The findings are illustrated in Table 7.

[7] = Degradation of L-thyroxine in crystallization solution at elevated temperature; settings: concentrations above 10% not feasible
Method: Concentrations of L-thyroxine above 10% were not feasible due to degradation at above 65° C.

[8] = trial 1: ultrasound off, cooled 50 to 10° C. at 0.5° C. per minute
[9] = trial 2: ultrasound on at 50° C., off at 30° C.
[10] = trial 3: ultrasound on at 50° C., off at 26° C.
[11] = trial 4: ultrasound on at 50° C., off at 22° C.
[12] = trial 5: ultrasound on at 50° C., off at 18° C.
[13] = trial 6: ultrasound on at 50° C., off at 14° C.
[14] = trial 7: ultrasound on at 50° C., off at 10° C.
[15] = trial 3: 10% US switched on at 32.5° C. (1K above expected nucleation temperature)
[16] = trial 5: 50% US switched on at 32.5° C.
[17] = trial 6: 100% US (roughly 0.18 W/cm^2)
[18] = trial 7: 100% US switched on at 32.5° C.
[19] = trial 8: 100% US switched off immediately after nucleation

For `N[C@@H](Cc1cc(I)c(Oc2cc(I)c(O)c(I)c2)c(I)c1)C(=O)O` [L-thyroxine], the “effect of solution composition on solubility” value ([1]; higher sodium carbonate or propanol concentrations) was “the inverse effect is observed”, the “effect of solution composition on solubility” value ([1]; reduction of sodium carbonate or propanol content of the initial solution) was “reduces L-thyroxine solubility” and the temperature of saturation ([1]; standard solution, 4.84% w/w L-thyroxine, 14.0% n-propanol, 2.85% sodium carbonate) was 42 °C. For the same compound, the solubility ([1]; standard solution, end of the cooling curve, 10° C.) was 0.78%, the Particle size ([2]; trial 1: cooling 20/10 K/h, 0.5 W/kg, dried 10 mbar 50° C.) was 15 μm and the Particle size ([2]; trial 1: cooling 20/10 K/h, 0.5 W/kg, dried 1013 mbar 25° C. openly in lab) was 30 μm. The Particle size ([2]; trial 2: cooling 20/10 K/h, 5 W/kg (stirrer rate increased 3x), dried 10 mbar 35° C.) was 18 μm, the Particle size ([2]; trial 3: cooling 30 K/h, 0.5 W/kg, dried 10 mbar 35° C.) was 19 μm and the Particle size ([2]; trial 4: cooling 30 K/h, 5 W/kg, dried 1013 mbar RT) was 10 μm. For the same compound, the Particle size ([2]; trial 5: 20% propanol, cooling 30 K/h, 5 W/kg, dried 50 mbar 35° C.) was less than 20 μm, the Particle size ([2]; trial 6: 10% propanol, cooling 30 K/h, 5 W/kg, dried 50 mbar 35° C.) was greater than 30 μm and the Particle size ([2]; trial 7: cooling 30 K/h, 0.5 W/kg, dried 1013 mbar RT, rinsed with 90/10 EtOH/water) was 16 μm. The Particle size ([2]; trial 8: cooling 30 K/h, 5 W/kg, dried 50 mbar 35° C., rinsed with 90/10 EtOH/water) was 11 μm, the Particle size ([2]; trial 9: cooling 30 K/h, 2 W/kg, dried 50 mbar 35° C., rinsed with 90/10 EtOH/water) was 13 μm and the Particle size ([2]; trial 10: as above, 1 hour stirring at final temperature) was 15 μm. It also gave a Particle size ([2]; trial 10: as above, 2 hour stirring at final temperature) of 15 μm, a Particle size ([2]; trial 10: cooling 30 K/h, 0.5 W/kg, dried 50 mbar 35° C.) of 15 μm and a Mean Particle Size (Number) [3, 8] of 3 µm. The Mean Particle Size Volume [3, 8] was 20.8 µm, the Mean Particle Size (Number) [3, 9] was 2.4 µm and the Mean Particle Size Volume [3, 9] was 6.6 µm. It also gave a Mean Particle Size (Number) [3, 10] of 2.3 µm, a Mean Particle Size Volume [3, 10] of 5.4 µm and a Mean Particle Size (Number) [3, 11] of 2.5 µm. The Mean Particle Size Volume [3, 11] was 5.7 µm, the Mean Particle Size (Number) [3, 12] was 2.4 µm and the Mean Particle Size Volume [3, 12] was 5.3 µm. The Mean Particle Size (Number) [3, 13] was 2.4 µm, the Mean Particle Size Volume [3, 13] was 5.2 µm and the Mean Particle Size (Number) [3, 14] was 3.1 µm. For the same compound, the Mean Particle Size Volume [3, 14] was 6.1 µm, the “reduction in particle size on a volume basis” value ([3]; trials 2-7 (ultrasound) versus trial 1 (no sonification)) was “roughly three fold” and the “metastable zone (range of supercooling)” value ([4]; aqueous solutions during cooling, depends on rate of cooling) was 5-11 °C. The “increase in the temperature at which solids appeared” value ([4]; plant scale, sonified crystallizations, cooling rate 0.5° C. per minute) was 9-18 °C, the “decrease in the metastable zone” value ([4]; sonified solution, cooling rate 0.17-0.5° C. per minute) was 1-3 °C and the “Nucleation Temperature” value ([4]; trial 1: ultrasound off) was 25 °C. The “Nucleation Temperature” value ([4]; trial 2: ultrasound on) was 35 °C, the “Nucleation Temperature” value ([4]; trial 3: ultrasound on) was 38 °C and the “Nucleation Temperature” value ([4]; trial 4: ultrasound on) was 38 °C. For the same compound, the “Nucleation Temperature” value ([4]; trial 5: ultrasound on) was 34 °C, the “Nucleation Temperature” value ([4]; trial 6: ultrasound on) was 36 °C and the “Nucleation Temperature” value ([4]; trial 7: ultrasound on) was 34 °C. The “Average Size” value ([5]; trial 1: 0% US intensity) was 46 μm, the Undercooling ([5]; trial 1: 0% US intensity) was 13.6 °C and the C.V. Coefficient of variation = (X86 − X14)/(2 * X50) ([5]; trial 1: 0% US intensity) was 74%. For the same compound, the “Average Size” value ([5]; trial 2: 10% US) was 13 μm, the Undercooling ([5]; trial 2: 10% US) was 12.1 °C and the C.V. Coefficient of variation = (X86 − X14)/(2 * X50) ([5]; trial 2: 10% US) was 70%. The “Average Size” value [5, 15] was 11 μm, the Undercooling [5, 15] was 12.8 °C and the C.V. Coefficient of variation = (X86 − X14)/(2 * X50) ([5]; trial 3: 10% US switched on at 32.5° C.) was 84%. The “Average Size” value ([5]; trial 4: 50% US) was 13 μm, the Undercooling ([5]; trial 4: 50% US) was 10.6 °C and the C.V. Coefficient of variation = (X86 − X14)/(2 * X50) ([5]; trial 4: 50% US) was 65%. The “Average Size” value [5, 16] was 11 μm, the Undercooling [5, 16] was 12.5 °C and the C.V. Coefficient of variation = (X86 − X14)/(2 * X50) [5, 16] was 69%. The “Average Size” value [5, 17] was 11 μm, the Undercooling [5, 17] was 11.9 °C and the C.V. Coefficient of variation = (X86 − X14)/(2 * X50) ([5]; trial 6: 100% US) was 61%. For the same compound, the “Average Size” value [5, 18] was 11 μm, the Undercooling [5, 18] was 12.5 °C and the C.V. Coefficient of variation = (X86 − X14)/(2 * X50) [5, 18] was 62%. The “Average Size” value [5, 19] was 22 μm, the Undercooling [5, 19] was 10.9 °C and the C.V. Coefficient of variation = (X86 − X14)/(2 * X50) [5, 19] was 74%. For the same compound, the “reduction of particle size” value ([6]; smallest ultrasound intensity versus no ultrasound) was 50%, the Crystal size ([6]; trial 1: No Ultrasound) was 28 μm and the Crystal size ([6]; trial 2: 10% Ultrasound) was 15 μm. For the same compound, the Crystal size ([6]; trial 3: 100% Ultrasound) was 14 μm and the temperature of degradation [7] was “above 65 °C”.
With `N[C@@H](Cc1cc(I)c(Oc2cc(I)c(O)c(I)c2)c(I)c1)C(=O)O.[Na]` [sodium L-thyroxine] the “point of nucleation of the aqueous solution” value ([4]; in the absence of ultrasound) was “approximately 32 °C”.
